Like-named read-outs stand apart in the source and are kept apart here. Numbered stars: 1 amine (or outer) side, 2 acyl side, 3 side chain; on linkers, the order of the positions; unused ones are H or OH. Bridge positions count the residues as written; N and C are the ends. Square brackets hold non-standard residues; d marks the D form. Peptide text beside a SMILES is read from it. Phe(4-guanidino) = N=C(N)Nc1ccc(C[C@H](N)C(=O)O)cc1; TBMB = c1c(C[*:1])cc(C[*:3])cc1C[*:2]; NMeR = CN[C@@H](CCCNC(=N)N)C(=O)O; hArg = N=C(N)NCCCC[C@H](N)C(=O)O; Tic = O=C(O)[C@@H]1Cc2ccccc2CN1; βAla = NCCC(=O)O
How the values were obtained:
human plasma Kallikrein = molecular target: T1, human plasma Kallikrein (Homo sapiens, UniProt P03952); assay: Functional enzyme inhibition assay, fluorogenic substrate Z-PheArg-AMC; type: biochemical
T1 construct: purchased Stratech, UK
Experimental: Peptides were dissolved as the TFA-salts in their powder form, and stock solutions were usually prepared in water. All solutions were centrifuged and filtered ([…] syringe filters) prior absorption measurement at 280 nm. […] For peptides containing non-natural amino acids with suspected chromophoric properties (i.e. NorHar, 4PhenylPro, 3PaI, 4PaI, Tic, 4GuanPhe, 4,4-BPAI, 3,3-DPA, 1NAI, 2NAI, 4BenzylPro, Ind) concentrations were determined by weighing the powder and dissolving the peptide in a defined quantity of water.

[1] = Plasma stability profiling method 1 (35% plasma, MALDI-TOF, qualitative); type: in vitro ADME, rat; conditions: 35% rat plasma, 37 deg C, method 1, comparative estimate
How it was run: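 Peptide at 200 uM incubated at 37 deg C in 35% rat or human citrated plasma with 1×PBS, sampled at 0, 3, 24 h then daily up to 10 days. Parent mass tracked by MALDI-TOF at similar laser intensity; value is time until parent no longer detectable, qualitative only.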

[2] = Plasma stability method 3 (95% plasma, quantitative LC/MS, Biofocus); type: in vitro ADME, rat
Experimental: To obtain plasma stability quantitatively, peptide stock solutions (1 mM in DMSO) were shipped to Biofocus, UK, who performed the analysis. Peptides were diluted to 100 uM with water, and diluted 1:20 in plasma (5 uM final concentration, with the plasma at 95%), sampled as appropriate, precipitated as above, and quantified using a Waters Xevo TQ-MS.

[3] = molecular target: Monkey plasma Kallikrein (mPK) (Macaca mulatta, UniProt A0A1D5Q7U7); assay: Target specificity, Ki for orthologous protease; type: biochemical
rat plasma Kallikrein = molecular target: T2, rat plasma Kallikrein (Rattus norvegicus, UniProt P14272); assay: Functional enzyme inhibition assay, fluorogenic substrate Z-PheArg-AMC; type: biochemical
T2 construct: polyhistidine tag with proTEV cleavage site (pro-peptide) (N, cleaved yes); made in house; host or cells: HEK-293 (suspension-adapted)

[4] = Ki (nM) (human kallikrein), Ac-06-34-18(TMB)-NH2 series

T1 sequence (P03952 20-638): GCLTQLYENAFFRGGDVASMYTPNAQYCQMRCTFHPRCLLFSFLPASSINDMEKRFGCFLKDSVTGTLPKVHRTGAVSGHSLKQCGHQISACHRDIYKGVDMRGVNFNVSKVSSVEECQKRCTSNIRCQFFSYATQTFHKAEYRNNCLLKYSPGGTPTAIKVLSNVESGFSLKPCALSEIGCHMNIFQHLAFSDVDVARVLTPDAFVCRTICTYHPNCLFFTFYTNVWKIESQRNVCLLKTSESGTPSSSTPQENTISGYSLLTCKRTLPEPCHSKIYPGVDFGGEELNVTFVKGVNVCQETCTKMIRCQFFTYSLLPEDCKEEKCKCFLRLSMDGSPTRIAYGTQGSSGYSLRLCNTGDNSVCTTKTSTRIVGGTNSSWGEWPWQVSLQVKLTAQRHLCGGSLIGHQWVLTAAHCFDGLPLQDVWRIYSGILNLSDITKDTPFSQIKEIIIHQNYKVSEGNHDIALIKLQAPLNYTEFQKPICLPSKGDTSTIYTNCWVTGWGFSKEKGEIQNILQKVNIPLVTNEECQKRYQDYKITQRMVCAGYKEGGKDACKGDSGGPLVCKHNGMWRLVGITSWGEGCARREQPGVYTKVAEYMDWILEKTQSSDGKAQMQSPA
Chain of Monkey plasma Kallikrein (mPK) (A0A1D5Q7U7 391-638): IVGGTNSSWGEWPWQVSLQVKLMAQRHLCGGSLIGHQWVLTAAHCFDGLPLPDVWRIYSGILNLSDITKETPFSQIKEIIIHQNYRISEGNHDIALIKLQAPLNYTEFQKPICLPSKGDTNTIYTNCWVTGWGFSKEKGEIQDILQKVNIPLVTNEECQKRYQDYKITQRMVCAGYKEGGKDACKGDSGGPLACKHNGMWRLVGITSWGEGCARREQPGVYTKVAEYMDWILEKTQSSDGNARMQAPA
T2 sequence (P14272 391-638 limits assumed): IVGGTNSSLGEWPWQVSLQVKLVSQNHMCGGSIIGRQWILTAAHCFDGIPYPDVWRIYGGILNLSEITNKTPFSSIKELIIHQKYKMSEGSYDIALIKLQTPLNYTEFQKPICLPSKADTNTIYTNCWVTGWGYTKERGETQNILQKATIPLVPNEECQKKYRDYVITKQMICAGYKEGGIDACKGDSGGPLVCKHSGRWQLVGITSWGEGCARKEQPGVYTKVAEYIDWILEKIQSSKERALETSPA

Row | SMILES | Ki (human plasma Kallikrein; [4]) [nM] | Observable in rat plasma, for days [1] [days] | t1/2 (hrs) in rat plasma ([2]; rat, plasma, 5 uM) [h] | other results
1 | CC(=O)N[C@H]1CSCc2cc3cc(c2)CSC[C@H](NC(=O)[C@H](CCCNC(=N)N)NC(=O)[C@H](Cc2ccc(O)cc2)NC(=O)[C@@H]2CCCN2C(=O)[C@H](Cc2ccccc2)NC(=O)[C@H](CO)NC1=O)C(=O)N[C@@H](CC(C)C)C(=O)N[C@@H](Cc1c[nH]cn1)C(=O)N[C@@H](CCC(N)=O)C(=O)N[C@@H](CC(=O)O)C(=O)N[C@@H](CC(C)C)C(=O)N[C@H](C(N)=O)CSC3 [Ac-(06-34-18) FPYR] (Ac-CSFPYRCLHQDLC-NH2; linker 1-7-13 via TBMB) | 0.46 | 2 | 0.9 | 
2 | CC(=O)N[C@H]1CSCc2cc3cc(c2)CSC[C@H](NC(=O)[C@H](Cc2ccc(NC(=N)N)cc2)NC(=O)[C@H](Cc2ccc(O)cc2)NC(=O)[C@@H]2CCCN2C(=O)[C@H](Cc2ccccc2)NC(=O)[C@H](CO)NC1=O)C(=O)N[C@@H](CC(C)C)C(=O)N[C@@H](Cc1c[nH]cn1)C(=O)N[C@@H](CCC(N)=O)C(=O)N[C@@H](CC(=O)O)C(=O)N[C@@H](CC(C)C)C(=O)N[C@H](C(N)=O)CSC3 [Ac-(06-34-18) Phe2 Tyr4 4GuanPhe5] (Ac-CSFPY[Phe(4-guanidino)]CLHQDLC-NH2; linker 1-7-13 via TBMB) | 0.4 | >10 | 5.0 | 
3 | CC(=O)N[C@H]1CSCc2cc3cc(c2)CSC[C@H](NC(=O)[C@H](CCCCNC(=N)N)NC(=O)[C@H](Cc2ccc(O)cc2)NC(=O)[C@@H]2CCCN2C(=O)[C@H](Cc2ccccc2)NC(=O)[C@H](CO)NC1=O)C(=O)N[C@@H](CC(C)C)C(=O)N[C@@H](Cc1c[nH]cn1)C(=O)N[C@@H](CCC(N)=O)C(=O)N[C@@H](CC(=O)O)C(=O)N[C@@H](CC(C)C)C(=O)N[C@H](C(N)=O)CSC3 [Ac-(06-34-18) Phe2 Tyr4 HomoArg5] (Ac-CSFPY[hArg]CLHQDLC-NH2; linker 1-7-13 via TBMB) |  | >10 | 12.2 | rat plasma stability enhanced by a factor ([2]; vs parent Phe2Tyr4 peptide): 13
4 | CC(=O)N[C@H]1CSCc2cc3cc(c2)CSC[C@H](NC(=O)[C@H](CCCNC(=N)N)N(C)C(=O)[C@H](Cc2ccc(O)cc2)NC(=O)[C@@H]2CCCN2C(=O)[C@H](Cc2ccccc2)NC(=O)[C@H](CO)NC1=O)C(=O)N[C@@H](CC(C)C)C(=O)N[C@@H](Cc1c[nH]cn1)C(=O)N[C@@H](CCC(N)=O)C(=O)N[C@@H](CC(=O)O)C(=O)N[C@@H](CC(C)C)C(=O)N[C@H](C(N)=O)CSC3 [Ac-(06-34-18) Phe2 Tyr4 NMeArg5] (Ac-CSFPY[NMeR]CLHQDLC-NH2; linker 1-7-13 via TBMB) | 3.56 | >10 | >20 | 
5 | CC(=O)N[C@H]1CSCc2cc3cc(c2)CSC[C@H](NC(=O)[C@H](CCCNC(=N)N)NC(=O)[C@H](C)NC(=O)[C@@H]2Cc4ccccc4CN2C(=O)[C@H](Cc2c[nH]c4ccccc24)NC(=O)[C@H](CO)NC1=O)C(=O)N[C@@H](CC(C)C)C(=O)N[C@@H](Cc1c[nH]cn1)C(=O)N[C@@H](CCC(N)=O)C(=O)N[C@@H](CC(=O)O)C(=O)N[C@@H](CC(C)C)C(=O)N[C@H](C(N)=O)CSC3 [Ac-(06-34-18) Tic3] (Ac-CSW[Tic]ARCLHQDLC-NH2; linker 1-7-13 via TBMB) | 13.5 | 2 |  | 
6 | CC(=O)N[C@H]1CSCc2cc3cc(c2)CSC[C@H](NC(=O)[C@H](CCCNC(=N)N)NC(=O)[C@H](Cc2ccc(O)cc2)NC(=O)[C@@H]2CCCN2C(=O)[C@H](Cc2c[nH]c4ccccc24)NC(=O)[C@H](CO)NC1=O)C(=O)N[C@@H](CC(C)C)C(=O)N[C@@H](Cc1c[nH]cn1)C(=O)N[C@@H](CCC(N)=O)C(=O)N[C@@H](CC(=O)O)C(=O)N[C@@H](CC(C)C)C(=O)N[C@H](C(N)=O)CSC3 [Ac-(06-34-18) WPYR] (Ac-CSWPYRCLHQDLC-NH2; linker 1-7-13 via TBMB) | 0.41 | 2 |  | 
7 | CC(=O)N[C@H]1CSCc2cc3cc(c2)CSC[C@H](NC(=O)[C@H](CCCNC(=N)N)NC(=O)[C@H](C)NC(=O)[C@@H]2CCCN2C(=O)[C@H](Cc2c[nH]c4ccccc24)NC(=O)[C@H](CO)NC1=O)C(=O)N[C@@H](CC(C)C)C(=O)N[C@@H](Cc1c[nH]cn1)C(=O)N[C@@H](CCC(N)=O)C(=O)N[C@@H](CC(=O)O)C(=O)N[C@@H](CC(C)C)C(=O)N[C@H](C(N)=O)CSC3 [Ac-(06-34-18) wildtype] |  |  |  | Observable in rat plasma, for days ([1]; listed as Ac-06-34-18(TMB)-NH2): about 2 days; t1/2 (hrs) in rat plasma ([2]; method 3, quantitative, listed as Ac-06-34-18(TMB)-NH2): about 2 hrs
8 | CC(=O)N[C@H]1CSCc2cc3cc(c2)CSC[C@H](NC(=O)[C@H](CCCNC(=N)N)NC(=O)CCNC(=O)[C@@H]2CCCN2C(=O)[C@H](Cc2c[nH]c4ccccc24)NC(=O)[C@H](CO)NC1=O)C(=O)N[C@@H](CC(C)C)C(=O)N[C@@H](Cc1c[nH]cn1)C(=O)N[C@@H](CCC(N)=O)C(=O)N[C@@H](CC(=O)O)C(=O)N[C@@H](CC(C)C)C(=O)N[C@H](C(N)=O)CSC3 [Ac-(06-34-18) β-Ala4] (Ac-CSWP[βAla]RCLHQDLC-NH2; linker 1-7-13 via TBMB) |  | 10 |  | Ki (human plasma Kallikrein; text b279, read-out: affinity to Kallikrein): ~20000 nM
9 | CC(C)[C@@H]1NC(=O)[C@H](CCCNC(=N)N)NC(=O)[C@@H]2CSCc3cc(cc(c3)CSC[C@@H](C(=O)N[C@@H](C)C(N)=O)NC(=O)[C@H](CC(N)=O)NC1=O)CSC[C@H](NC(=O)[C@H](C)N)C(=O)N[C@@H](Cc1ccccc1)C(=O)N[C@@H](CCCCN)C(=O)N[C@@H](C)C(=O)N2 [Peptide 3B3] |  |  |  | Ki [3]: 11 nM
10 | CSCC[C@@H]1NC(=O)[C@@H]2CSCc3cc(cc(c3)CSC[C@@H](C(=O)N[C@@H](C)C(N)=O)NC(=O)[C@H](CC(C)C)NC(=O)[C@H](CC(=O)O)NC(=O)[C@H](CCC(N)=O)NC(=O)[C@H](Cc3c[nH]cn3)NC1=O)CSC[C@H](NC(=O)[C@H](C)N)C(=O)N[C@@H](CCCNC(=N)N)C(=O)N[C@@H](Cc1c[nH]c3ccccc13)C(=O)N1CCC[C@H]1C(=O)N[C@@H](C)C(=O)N[C@@H](CCCNC(=N)N)C(=O)N2 [Peptide 06-34-04] (H-ACRWPARCMHQDLCA-NH2; linker 2-8-14 via TBMB; N-terminus and C-terminus assumed) |  |  |  | IC50 (rat plasma Kallikrein): 0.56 nM
11 | C[C@H](N)C(=O)N[C@H]1CSCc2cc3cc(c2)CSC[C@H](NC(=O)[C@H](CCCNC(=N)N)NC(=O)[C@H](C)NC(=O)[C@@H]2CCCN2C(=O)[C@H](Cc2c[nH]c4ccccc24)NC(=O)[C@H](CCCNC(=N)N)NC1=O)C(=O)N[C@@H]([C@@H](C)O)C(=O)N[C@@H](Cc1c[nH]cn1)C(=O)N[C@@H](CCC(N)=O)C(=O)N[C@@H](CC(N)=O)C(=O)N[C@@H](Cc1ccc(O)cc1)C(=O)N[C@H](C(=O)N[C@@H](C)C(N)=O)CSC3 [Peptide 06-54] (H-ACRWPARCTHQNYCA-NH2; linker 2-8-14 via TBMB; N-terminus and C-terminus assumed) |  |  |  | Ki [3]: 6 nM

Reference: patent US11912794B2, “Modulation of structured polypeptide specificity” (BicycleRD Limited, priority 2011, dated 2024)
